Patent US11098040B2, “Compounds and methods of use” (Ferro Therapeutics, Inc., priority 2018, dated 2021)

Assays:
[1] = Whole blood stability, human; assay type: in vitro ADME
Text: (§1) The results of the assay on stability in blood and IC50 values for pancreatic cancer cell line KP4 are given below in Table 24.

[2] = Whole blood stability, mouse; assay type: in vitro ADME
Text: as §1

[3] = tested on: KP4; assay: Cell viability assay (CellTiter Glo), pancreatic ductal adenocarcinoma KP4; assay type: cell-based, human; details: Homo sapiens, KP-4, 96 h, pancreatic cancer cell line KP4, 96 hours, CellTiter Glo; read-out: IC50 μM KP4
Summary of the method: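 KP4 cells seeded at 1,000–10,000 per well, treated 96 h with 9-point 3-fold dilutions from 30 μM top (4.6 nM–30 μM, duplicates; ≤0.25% DMSO). Viability by CellTiter Glo luminescence; % inhibition relative to DMSO-only wells, giving IC50, relative IC50 or % top inhibition.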

SMILES	Whole Blood Stability % Remaining at 37° C. Human ([1]; 0 min) [%]	Whole Blood Stability % Remaining at 37° C. Human ([1]; 30 min) [%]	Whole Blood Stability % Remaining at 37° C. Human ([1]; 60 min) [%]	Whole Blood Stability % Remaining at 37° C. Mouse ([2]; 0 min) [%]	Whole Blood Stability % Remaining at 37° C. Mouse ([2]; 30 min) [%]	Whole Blood Stability % Remaining at 37° C. Mouse ([2]; 60 min) [%]	IC50 [3] [µM]
O=C(O)c1ccc([C@H]2c3[nH]c4ccccc4c3C[C@H](C(=O)O)N2C(=O)CCl)cc1 [Compound 5]	100.0	106.3	82.0	100.0	86.3	67.9	> 1
CN(C)C(=O)[C@H]1Cc2c([nH]c3ccccc23)[C@H](c2ccc(C(=O)NC[Si](C)(C)C)cc2)N1C(=O)CCl [Compound 66]	100.0	79.1	45.8	100.0	69.8	26.8	0.01 to 0.1
CC(C)N(C(=O)[C@H]1Cc2c([nH]c3ccccc23)[C@H](c2ccc(C(=O)N(C)C)cc2)N1C(=O)CCl)C(C)C [Compound 39]	100.0	64.5	50.4	100.0	73.2	60.4	0.1 to 0.5
COC(=O)c1ccc([C@@H]2c3sc4ccccc4c3C[C@H](C(=O)OC)N2C(=O)CCl)cc1 [Example 55d]	100.0	60.8	41.2	100.0	0.0	0.0	0.1 to 0.5

Further lines, results first:

Whole Blood Stability % Remaining at 37° C. Human ([1]; 0 min) [%]	Whole Blood Stability % Remaining at 37° C. Human ([1]; 30 min) [%]	Whole Blood Stability % Remaining at 37° C. Human ([1]; 60 min) [%]	Whole Blood Stability % Remaining at 37° C. Mouse ([2]; 0 min) [%]	Whole Blood Stability % Remaining at 37° C. Mouse ([2]; 30 min) [%]	Whole Blood Stability % Remaining at 37° C. Mouse ([2]; 60 min) [%]	IC50 [3] [µM]	SMILES
100.0	37.8	17.9	100.0	25.4	9.8	0.01 to 0.1	COC(=O)[C@H]1Cc2c([nH]c3ccccc23)[C@H](c2ccc(S(=O)(=O)N3CC(O)C3)cc2)N1C(=O)CCl [Compound 37]
100.0	60.5	43.0	100.0	59.6	46.6	< 0.01	COC(=O)[C@H]1Cc2c([nH]c3ccccc23)[C@H](c2ccc(C(=O)OC(C)(C)C)cc2)N1C(=O)CCl [Compound 1]
100.0	36.8	20.6	100.0	65.0	36.9	0.01 to 0.1	CN(C)C(=O)[C@H]1Cc2c([nH]c3ccccc23)[C@H](c2ccc(S(=O)(=O)C(C)(C)C)cc2)N1C(=O)CCl [Compound 68]
100.0	73.5	54.4	100.0	0.0	0.0	< 0.01	COC(=O)[C@H]1Cc2c([nH]c3ccccc23)[C@H](c2ccc(C(=O)OCC3CCC3)cc2)N1C(=O)CCl [Compound 85]
100.0	84.8	91.2	100.0	0.0	0.0	< 0.01	COC(=O)[C@H]1Cc2c([nH]c3ccccc23)[C@H](c2ccc(C(=O)OCC3CCCCC3)cc2)N1C(=O)CCl [Compound 89]
